Molecular target: T1, JNK1α1 (Homo sapiens, UniProt P45983)
T1 construct: catalytic domain containing amino acids 1-364 and N-terminal hexahistidine tag; hexahistidine (His6) (N); made in house; host or cells: E. coli BL21 (DE3)
Test: Coupled spectrophotometric (PK/LDH) JNK1α1 assay: % inhibition and Ki determination
Type: biochemical
Details: for Ki: JNK-1; for inhibition at 1 µM: read-out: % Inhibition JNK-1
Method in brief: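 Initial rates were taken from the absorbance decrease at 340 nm at 30° C. Ki was fitted with a tight-binding model over 11 concentrations (top 100 μM); single-point inhibition was tested at 1 or 10 μM.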

T1 sequence (P45983 1-364): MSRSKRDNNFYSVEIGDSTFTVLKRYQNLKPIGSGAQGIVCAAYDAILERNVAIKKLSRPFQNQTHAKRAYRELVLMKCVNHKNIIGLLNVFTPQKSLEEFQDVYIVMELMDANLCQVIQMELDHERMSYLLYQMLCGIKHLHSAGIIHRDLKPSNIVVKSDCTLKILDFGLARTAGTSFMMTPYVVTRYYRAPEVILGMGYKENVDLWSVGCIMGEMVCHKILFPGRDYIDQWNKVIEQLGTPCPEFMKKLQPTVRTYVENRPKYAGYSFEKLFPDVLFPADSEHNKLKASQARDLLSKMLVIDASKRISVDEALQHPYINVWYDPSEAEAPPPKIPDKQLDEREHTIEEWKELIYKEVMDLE

Compound | Ki | inhibition at 1 µM
C[C@@H](CO)NC(=O)c1cccc2cnc(N[C@H]3CC[C@H](NS(C)(=O)=O)CC3)nc12 [Example 131, N-[(1S)-2-hydroxy-1-methylethyl]-2-({trans-4-[(methylsulfonyl)amino]cyclohexyl}amino)quinazoline-8-carboxamide] | 77 nM | 
CN(C)CCOc1ccc2cnc(N[C@H]3CC[C@H](O)CC3)nc2c1 [Example 157, trans-4-({7-[2-(dimethylamino)ethoxy]quinazolin-2-yl}amino)cyclohexanol] | 1780 nM | 
CC1CN(CCOc2cccc3cnc(N[C@H]4CC[C@H](O)CC4)nc23)CC(C)O1 (stereo partly drawn) [Example 267, trans-4-({8-[2-(2,6-dimethylmorpholin-4-yl)ethoxy]quinazolin-2-yl}amino)cyclohexanol] |  | 18%
C[C@@H]([C@H](Oc1ccc2cnc(N[C@H]3CC[C@H](O)CC3)nc2c1)c1ccccc1)N(C)C [Example 296, trans-4-[(7-{[(1R,2S)-2-(dimethylamino)-1-phenylpropyl]oxy}quinazolin-2-yl)amino]cyclohexanol] |  | 14%
O=C(CC1CCS(=O)(=O)C1)Nc1cc2cc(-c3cn[nH]c3)ccc2cn1 (centres unmarked) [Example 13, 2-(1,1-dioxidotetrahydro-3-thienyl)-N-[6-(1H-pyrazol-4-yl)isoquinolin-3-yl]acetamide] | 36 nM | 
Cc1cc(C(=O)NCC(=O)Nc2cc3cc(-c4cn[nH]c4)ccc3cn2)no1 [Example 19, 5-methyl-N-(2-oxo-2-{[6-(1H-pyrazol-4-yl)isoquinolin-3-yl]amino}ethyl)isoxazole-3-carboxamide] | 13 nM | 

Now from value to molecule:

Ki | inhibition at 1 µM | Compound
104 nM |  | O=C(NCC(O)c1ccccc1)c1cccc2cnc(N[C@H]3CC[C@H](O)CC3)nc12 (stereo partly drawn) [Example 443, 2-[(trans-4-hydroxycyclohexyl)amino]-N-(2-hydroxy-2-phenylethyl)quinazoline-8-carboxamide]
387 nM |  | O=C(N[C@H](CO)CC1CCCCC1)c1ccc2cnc(NC3CCCCC3)nc2c1 [Example 393, 2-(cyclohexylamino)-N-[(1S)-2-cyclohexyl-1-(hydroxymethyl)ethyl]quinazoline-7-carboxamide]
 | 18% | O[C@H]1CC[C@H](Nc2ncc3ccc(OC(CN4CCOCC4)c4ccccc4)cc3n2)CC1 (stereo partly drawn) [Example 298, trans-4-{[7-(2-morpholin-4-yl-1-phenylethoxy)quinazolin-2-yl]amino}cyclohexanol]
2470 nM |  | O=C(NCCN1CCCCC1=O)c1ccc2cnc(N[C@H]3CC[C@H](O)CC3)nc2c1 [Example 370, 2-[(trans-4-hydroxycyclohexyl)amino]-N-(2-(2-oxopiperidin-1-yl)ethyl]quinazoline-7-carboxamide]
 | 23% | O=C(NCCO)c1ccc2cnc(NC3CCCCC3)nc2c1 [Example 426, 2-(cyclohexylamino)-N-(2-hydroxyethyl)quinazoline-7-carboxamide]
1810 nM |  | COc1ncccc1NC(=O)c1ccc2cnc(N[C@H]3CC[C@H](O)CC3)nc2c1 [Example 362]
 | 11% | CC(C)Nc1ncc2ccc(C(=O)N[C@H](CO)C(C)C)cc2n1 [Example 425, N-[(1S)-1-(hydroxymethyl)-2-methylpropyl]-2-(isopropylamino)quinazoline-7-carboxamide]
 | 18% | Cc1nnc(CCNC(=O)c2cccc3cnc(N[C@H]4CC[C@H](O)CC4)nc23)o1 [Example 522, 2-[(trans-4-hydroxycyclohexyl)amino]-N-[2-(5-methyl-1,3,4-oxadiazol-2-yl)ethyl]quinazoline-8-carboxamide]

From US7998978B2 (Pfizer Inc., priority 2006, dated 2011)
